Read-outs that look alike come from different tables or passages of the source.
Legend:
[1] = Drug distribution of Compound 1 in mouse plasma, brain and perilymph after oral dosing; assay type: in vivo; settings: 2 h after a 300 mg/kg p.o. dose
Procedure: Complete ADME and PK assessment of Compound 1 and Compound 2 at several doses by oral and intratympanic (IT) dosing in wild-type mice and in transgenic efflux-pump knock-out mice to benchmark compound exposure. […] Drug distribution of Compound 1 in a mouse was determined after dosing at 300 mg/kg.

PAMPA permeability = assay type: in vitro ADME
AMPK = AMPK activation in inner and outer hair cells of treated mice; assay type: in vivo, mouse
Source text: There has been increasing interest in AMPK activation in human disease. […] The activation pathways and downstream targets of AMPK differ depending on its subcellular localization (FIG. 8C). In response to energy stress, LKB1 activates cytoplasmic and lysosomal AMPK in an axin-dependent manner as exemplified by phosphorylation of the AMPK target ACC1, whereas it activates mitochondrial AMPK in an axin-independent manner as exemplified by phosphorylation of the AMPK target ACC2. By contrast, activation of nuclear AMPK in response to elevated intracellular Ca^2+ levels are mediated by CaMKK2. For the observed noise-induced activation of nuclear AMPK in IHCs, in the absence of which (γ2 deficiency) mice suffer greater synaptic ribbon morphometric changes and NIHL (FIGS. 3A-3D & 4A-4E), AMPK may be activated by CaMKK2, especially given that physiological sound relay to the auditory nerve in IHCs involves transient Ca2+ elevation.

[2] = Concentration in perilymph and plasma following intratympanic dosing in two mouse strains (LC-MS/MS); assay type: in vivo, C57BL/6J and FVB mice; settings: 5 μL of 5 mg/mL in 5% DMSO-95% Poloxamer 407 solution, all plasma data points except one
Procedure: Compound 1 was dissolved DMSO and added to a cold solution of 20% Poloxamer 407 in PBS. The mixture was vortexed to give a solution of final solution of 5 mg/mL Compound 1 in 5% DMSO-95% Poloxamer 407 solution.
In fully anesthetized mice, the mouse bulla was reached through the digastric and sternocleidomastoid muscles and a 27-gauge needle was used to drill an opening adjacent to the round window niche. 5 μL of Compound 1 in the cold 5%/95% DMSO/Poloxamer 407 hydrogel vehicle was introduced by intratympanic injection in both C57BL/6J and FVB mice. Upon reaching the desired time point, mice were euthanized under deep anesthesia. Blood from the heart was collected to determine drug plasma levels. The mouse bulla was re-exposed to verify the injection site and all possible drug remaining were removed from inner ear before collecting the perilymph from the apical side of the cochlea.
Drug levels were measured using LC-MS/MS (Q-trap) with 500 nM indomethacin as the internal standard. Perilymph samples were diluted 10× in plasma. An aliquot of 1 μL sample was protein precipitated with 50 μL IS, the mixture was vortex-mixed well and centrifuged at 3600 rpm for 10 min, Room Temp. 10 μL supernatant was injected for LC-MS/MS analysis. […]

[3] = preclinical data; cited from earlier work
[4] = analysis of known AMPK activators; cited from earlier work
six-week-old B6 mice = assay: Noise-induced hearing loss in mice after moderate noise exposure (ABR thresholds, IHC synaptic ribbons), orally administered compound; assay type: in vivo, mouse
Source text: FIGS. 9A-9C depict that Compound 1 administration is protective against mid- to high-frequency hearing loss and synaptic ribbon loss. (A) Threshold elevation two-weeks after moderate noise exposure is reduced in six-week-old B6 mice treated with orally administered Compound 1 either prior or after noise exposure. […] (C) Quantification of paired synaptic ribbons in mice two weeks after exposure to moderate noise given vehicle (top row) and Compound 1 (bottom row). (n=4; scale bar=[…]).
Inducing NIHL in mice. To induce NIHL, mice are exposed to octave band noise (OBN) with a center frequency of 10 kHz for 2 hours using a method adapted from Kujawa, Sharon G., and M. Charles Liberman. “Adding insult to injury: cochlear nerve degeneration after “temporary” noise-induced hearing loss.” Journal of Neuroscience 29.45 (2009): 14077-14085., which is incorporated herein by reference in its entirety.
There has been increasing interest in AMPK activation in human disease. […] The activation pathways and downstream targets of AMPK differ depending on its subcellular localization (FIG. 8C). In response to energy stress, LKB1 activates cytoplasmic and lysosomal AMPK in an axin-dependent manner as exemplified by phosphorylation of the AMPK target ACC1, whereas it activates mitochondrial AMPK in an axin-independent manner as exemplified by phosphorylation of the AMPK target ACC2. […]

[5] = Test article handling / stability information; assay type: physicochemical; settings: room temp

SMILES: O[C@@H]1CO[C@H]2[C@@H]1OC[C@H]2Oc1nc2nc(-c3ccc(-c4ccccc4)cc3)c(Cl)cc2[nH]1 [Compound 1, (3R,3aR,6R,6aR)-6-((5-([1,1′-biphenyl]-4-yl)-6-chloro-3H-imidazo[4,5-b]pyridin-2-yl)oxy)hexahydrofuro[3,2-b]furan-3-ol]
- concentration at 2 h ([1]; brain, read-out: Brain level of Compound 1): 45 ± 5 µM
- concentration at 2 h ([1]; perilymph, read-out: Perilymph level of Compound 1): 0.87 ± 0.04 µM
- concentration at 2 h ([1]; plasma, read-out: Plasma level of Compound 1): 443 ± 64 µM
- Papp (PAMPA permeability): 24 ×10⁻⁶ cm/s
- AMPK activation in hair cells (AMPK): nuclear and cytoplasmic activation of AMPK in both inner and outer hair cells
- Plasma concentration following intratympanic dosing [2]: below the level of detection
- Effect on glucose homeostasis [3]: improve glucose homeostasis
- Passive permeability (in words) [4]: high passive permeability
- ABR threshold elevation two weeks after moderate noise exposure (six-week-old B6 mice; orally administered either prior or after noise exposure, six-week-old B6 mice): reduced
- IHC (32 kHz region) synaptic ribbon counts after moderate noise exposure (six-week-old B6 mice; two weeks after exposure to moderate noise, vs vehicle, n=4): preservation
- Stability of test article [5]: Compound 1 stable at room temp

From patent publication US20240180882A1, “COMPOUNDS FOR PROTECTION OF NOISE-INDUCED HEARING-LOSS” (The Regents of the University of California, priority 2021, published 2024)
